Reference: patent publication US20240417395A1, “DUAL ANTAGONIST AND USE THEREOF” (NICOYA THERAPEUTICS (SHANGHAI) CO., LTD, priority 2021, published 2024)
Converted amounts (≈) assume the structure as drawn. Where two headings read alike, the source gives them in different places.

What was measured:
AT1 = AT1 (Homo sapiens (Human), UniProt P30556); experiment: Calcium flux assay on AT1 cell line; format: cell-based; conditions: AT1/HEK293, calcium flux, angiotensin II agonist
Method: Test materials: a) cell line: AT1/HEK293; b) vehicles: F12, Invitrogen (Cat #11765-047); FBS, Corning (Cat #35-076-CV); Geneticin, Invitrogen (Cat #10131); c) reagent: Fluo-4 Direct, (Invitrogen, Cat #F10471); d) instruments: 384 well Poly-D-Lysine protein coating plate, Greiner #781946; Vi-cell XR Cell Viability Analyzer, Beckman Coulter; Incubator, Thermo.
For the agonist (angiotensin II) master plate, the agonist solution was diluted from 1 mM to 200 μM with the test buffer solution. […] Afterwards, 900 nL of each compound solution was transferred to the master plate and 30 μL of the test buffer solution was added. • a) The cell plate was removed from the incubator, and 20 μL of 2X Fluo-4 Direct was added by a pipette to a 384-well cell plate. • b) The cell plate was incubated at 37° C. for 50 min in the environment of 5% CO2, and then incubated at room temperature for 10 min. • c) The cell plate was removed from the incubator and placed in FLIPR. The compound plates and the tip box were placed in FLIPR. • d) Regarding the EC80 plate: • 1) Operations were conducted on […]. • 2) 10 μL of compound solution was transferred from the EC80 master plate to the cell plate. • 3) Fluorescence signals were read. • 4) The read signals were counted, and the EC80 value of each cell line was calculated using FLIPR. • 5) For the concentration of the compound plate, a solution having a concentration 6 times that of the reference agonist EC80 was formulated. • e) Regarding the compound plate: • 1) Operations were conducted on […]. • 2) 10 μL of compound was transferred to the cell plate. • 3) Fluorescence signals were read. • 4) 10 μL of solution having a concentration 6 times that of the reference agonist EC80 was transferred. • 5) Fluorescence signals were read. • f) Data analysis by Prism

CYP1A2 = CYP1A2 (Homo sapiens (Human), UniProt P05177); experiment: Inhibition of cytochrome P450 isozyme CYP1A2; format: in vitro ADME; conditions: for IC50: recombinant enzyme
CYP1A2, sequence (P05177 whole entry): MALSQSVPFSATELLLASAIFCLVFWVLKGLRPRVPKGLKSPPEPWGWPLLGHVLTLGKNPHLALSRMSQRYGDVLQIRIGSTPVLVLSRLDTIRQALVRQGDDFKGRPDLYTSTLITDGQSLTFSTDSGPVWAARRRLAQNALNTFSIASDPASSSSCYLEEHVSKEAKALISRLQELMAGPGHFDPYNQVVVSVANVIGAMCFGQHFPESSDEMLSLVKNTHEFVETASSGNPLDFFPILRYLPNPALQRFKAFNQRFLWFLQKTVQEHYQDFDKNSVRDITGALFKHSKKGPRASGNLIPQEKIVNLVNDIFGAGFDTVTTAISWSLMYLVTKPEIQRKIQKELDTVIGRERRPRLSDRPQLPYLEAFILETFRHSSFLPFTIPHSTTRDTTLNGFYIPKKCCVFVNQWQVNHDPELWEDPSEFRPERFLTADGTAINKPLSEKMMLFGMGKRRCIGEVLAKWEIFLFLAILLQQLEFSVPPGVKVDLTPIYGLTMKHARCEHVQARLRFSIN
Method: A total of six specific probe substrates of six isozymes of CYPs, i.e., α-Naphthoflavone (CYP1A2), Sulphaphenazole (CYP2C9), Ticlopidine (CYP2C19), Quinidine (CYP2D6), Ketoconazole (CYP3A4), and Montelukast (CYP2C8) were co-incubated with recombinant hepatic drug enzymes CYP1A2, CYP2C9, CYP2C19, CYP2D6, CYP3A4, and CYP2C8 and test compounds, respectively. Nicotinamide adenine dinucleotide phosphate (NADP+), D-glucose-6-phosphate (G6P) and glucose-6-phosphate dehydrogenase (G6DHP) were added to start the reaction. At the end of the reaction, the corresponding half maximal inhibitory concentrations (IC50) were calculated by the fluorescence detection method (Ex490 nm/Em520 nm).

[1] = Pharmacokinetic test in rats; format: in vivo; conditions: SD rats; for Bioavailability: PO 10 mg/kg vs IV 1 mg/kg; for in vivo exposure after oral administration (in words) / oral bioavailability versus reference compound (in words): oral gavage
Method: Experimental animal: SD rats, 6-8 weeks. Six animals were used for each example compound.
Drug solution formulation: all of the Experimental Example compounds were formulated into 1 mg/mL solution. The solution system was 5% DMSO+20% Solutol HS15+75%(20% HP—β-CD aqueous solution).
Grouping for administration: the first group was administered by oral gavage (PO, three SD rats, 10 mg/kg, fasted overnight before administration, and fed after 4 hours following the administration); and the second group was administered by intravenous injection in dorsum of foot (IV, three SD rats, 1 mg/kg, fed freely).
Blood sampling time and treatment method: Blood was collected via the jugular vein at the following 7 to 8 points in time: 0.083 (only in the intravenous injection group), 0.25, 0.5, 1, 2, 4, 8, and 24 hours. The blood samples were centrifuged (2000 g, 4° C., 5 min) to obtain plasma. The samples were stored at −70° C. before analysis.
Analytical instruments and conditions: LC-MS/MS-33 (Triple Quad 6500+); MS: positive, ESI; mobile phases: Mobile phase A: H2O-0.025% FA-1 mM NH4OAc, Mobile phase B: MeOH-0.025% FA-1 mM NH4OAc; flow rate: 0.60 mL/min; chromatographic column: ACQUITY UPLC-BEH C18 (2.1×50 mm, 1.7 μm); column temperature: 60° C.

[2] = Experiment on water solubility (HPLC-UV); format: physicochemical
Method: The detection was carried out in accordance with the high performance liquid chromatography (General Principles 0512 of Chinese Pharmacopoeia Volume IV (2020)):
Chromatographic conditions for the HPLC-UV method: mobile phase: 0.02 M KH2PO4 aqueous solution-acetonitrile (90:10), gradient elution; chromatographic column: C18; detection wavelength: 210 nm. The water solubility was calculated based on the peak area by the external standard method.

[3] = read-out: IC50 activity against AT1 (class)
[4] = fluorescence detection, read-out: IC50 CYP1A2

AT1, sequence (P30556 whole entry): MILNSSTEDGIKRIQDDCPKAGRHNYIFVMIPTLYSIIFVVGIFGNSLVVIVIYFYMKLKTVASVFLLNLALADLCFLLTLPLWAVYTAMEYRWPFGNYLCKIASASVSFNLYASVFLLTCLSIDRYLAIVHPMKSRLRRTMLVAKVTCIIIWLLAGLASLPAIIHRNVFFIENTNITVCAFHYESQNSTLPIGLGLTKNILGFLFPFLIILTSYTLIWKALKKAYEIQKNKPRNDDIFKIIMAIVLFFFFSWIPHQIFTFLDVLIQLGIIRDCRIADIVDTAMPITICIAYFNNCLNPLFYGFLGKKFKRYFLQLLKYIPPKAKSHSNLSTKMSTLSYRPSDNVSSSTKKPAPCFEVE

| Compound | IC50 (AT1; [3]) [nM] | IC50 (AT1; read-out: IC50 against AT1) [nM] | risk of inhibiting CYP1A2 activity (conclusion in words) (CYP1A2; conclusion to Table 4) | IC50 (CYP1A2; [4]) [µM] | AUClast ([1]; PO 10 mg/kg) [ng·h/mL] | Cmax ([1]; PO 10 mg/kg) [ng/mL] | T1/2 ([1]; PO 10 mg/kg) [h] | Tmax ([1]; PO 10 mg/kg) [h] | Bioavailability [1] [%] | in vivo exposure after oral administration (in words) [1] | oral bioavailability versus reference compound (in words) [1] | Solubility FaSSGF (pH1.6) ([2]; FaSSGF (pH1.6)) [mg/mL] | Solubility FaSSIF (pH6.5) ([2]; FaSSIF (pH6.5)) [mg/mL] | Solubility FeSSIF (pH5.0) ([2]; FeSSIF (pH5.0)) [mg/mL] | Solubility pH7.4 ([2]; pH7.4) [mg/mL] | other results |
| --- | --- | --- | --- | --- | --- | --- | --- | --- | --- | --- | --- | --- | --- | --- | --- | --- |
| CCCCC1=N[C@@]2(CC3C[C@H]3C2)C(=O)N1Cc1ccc(-c2ccccc2S(=O)(=O)Nc2noc(C)c2Cl)c(COCC)c1 (stereo partly drawn) [Example 7] | 1 to 10 | 3.55 | no risk of inhibiting | > 10 | 23530 | 3080 | 5.28 | 3.33 | 43.4 | high in vivo exposure | higher oral bioavailability | 0.24 | 0.87 | 0.08 | 0.84 | – |
| CCCCC1=NC2(CCCC2)C(=O)N1Cc1ccc(-c2ccccc2S(=O)(=O)Nc2noc(C)c2C)c(COCC)c1 [Sparsentan, reference compound] | – | 9.79 | no risk of inhibiting | > 10 | – | – | – | – | – | – | – | – | – | – | – | AUC(0-t) ([1]; rat, plasma, PO 10 mg/kg): 18600 ng·h/mL; half-life ([1]; rat, plasma, PO 10 mg/kg): 924 min; Bioavailability ([1]; rat, plasma, read-out: Bioavailability): 20.6%; Cmax ([1]; rat, plasma, PO 10 mg/kg, read-out: Cmax): 1800 ng/mL; Tmax ([1]; rat, plasma, PO 10 mg/kg, read-out: Tmax): 1.42 h; solubility ([2]; aqueous medium at pH 7.4 (buffer not named), pH 7.4, aqueous buffer, pH7.4, read-out: Solubility pH7.4): 210 µg/mL (≈ 354 µM); solubility ([2]; pH 1.6, fassgf or other biorelevant, FaSSGF (pH1.6), read-out: Solubility FaSSGF (pH1.6)): 130 µg/mL (≈ 219 µM); solubility ([2]; pH 5, FeSSIF (pH5.0), read-out: Solubility FeSSIF (pH5.0)): 20 µg/mL (≈ 33.7 µM); solubility ([2]; pH 6.5, FaSSIF (pH6.5), read-out: Solubility FaSSIF (pH6.5)): 80 µg/mL (≈ 135 µM) |
| CCCCC1=N[C@@]2(CC3C[C@H]3C2)C(=O)N1Cc1ccc(-c2ccccc2S(=O)(=O)Nc2noc(C)c2C)c(COCC)c1 (stereo partly drawn) [Example 3] | 1 to 10 | 1.97 | – | – | 24407 | 2993 | 7.00 | 2.17 | 69.3 | high in vivo exposure | higher oral bioavailability | >1 | 0.19 | 0.06 | 0.82 | risk of inhibiting CYP1A2 activity (conclusion in words) (CYP1A2): no risk of inhibiting; IC50 (CYP1A2): > 10 µM |
